Laboratory results reported in publication PMC6330446, “An integrated characterization of contractile, electrophysiological, and structural cardiotoxicity of Sophora tonkinensis Gapnep. in human pluripotent stem cell-derived cardiomyocytes” (Stem Cell Research & Therapy, 2019).
“Also recorded” adds a separate entry of the source. Read-outs that look alike come from different tables or passages of the source.

Assays:
hiPSC-CMs [1] = assay: SOD, GSH and MDA assay; format: cell-based, human; conditions: 2, 10, 50 μM
Experimental: (§1) After plating for about 3 days, CMs matured and began to beat. At this time, different compounds were added, and experiments were performed 24 h after treatment. The experiments were grouped as follows: control group (normal medium); matrine, oxymatrine, sophocarpine, and cytisine treatment (2, 10, 50 μM) groups; and aconitine treatment (1 μM) group. The doses of toxicity studies above were determined by the effective therapeutic doses reported and included or exceeded the therapeutic dose.
Cell treatment was the same as discussed in the “Compound treatment” section. After reaching the predetermined time, the cells were washed with 4 °C physiological saline and later were added into the lysate and appropriately pipetted. After centrifuging at 1.2 × 10^4 rpm for 5 min, the supernatant was obtained to measure the levels of SOD, GSH and MDA using a commercially available kit (Beyotime Biotechnology, Shanghai, China) following the manufacturer's instructions. Data were presented as the mean ± SEM, n ≥ 3.

hiPSC-CMs [2] = assay: Cardio-NLCS impedance and extracellular field potential (EFP) recording; format: cell-based, human; conditions: for Amplitude (EFP): lowest concentration that demonstrated a significant change compare with the control group / Amplitude (IMP): lowest concentration that demonstrated a significant change compare with the control group / Base impedance: lowest concentration that demonstrated a significant change compare with the control group / Beat rate: lowest concentration that demonstrated a significant change compare with the control group / FPD: lowest concentration that demonstrated a significant change compare with the control group: 2, 10, 50 μM tested, recorded over 24 h; for Base impedance vs the control group (in words) / Contractile amplitude (amplitude of IMP) vs the control group (in words) / FPD value vs the control group (in words) / Potential amplitude (amplitude of EFP) vs the control group (in words) / Beat rate vs the control group (in words): 2, 10, 50 μM, 24 h recording
Experimental: as §1
Cardio-NLCS (Optoprobe Science LTD, Canada) is a turn-key system for efficient impedance and extracellular field potential (EFP) measurements of cell monolayers or tissue preparations. NSP-96 dedicated for Cardio-NLCS should be coated with BD and the wells should not run dry before adding the cell suspension. After seeding, the medium was not exchanged for 12 h. Subsequently, the medium exchange was completed once a day for 2–3 days and every 2 days thereafter. Adding compounds required a complete solution exchange to allow for exact dosing. After the cells were allowed to re-equilibrate for 2–3 h, the 2× concentrated compounds were added by exchanging half of the medium per well. In this experiment, several indexes (base impedance, amplitude, beat rate, and FPD) were recorded at the start of the experiment (control), then every 5 min for 4 h after compound application and every 30 min the same as cell growth period detection, lasting a minimum of 24 h. In this way, both time and concentration-dependent effects could be monitored. Impedance and EFP data analyses were taken every 4 h after compound administrations.

hiPSC-CMs [3] = tested on: hiPSC-CMs
Experimental: as §1
Cell treatment method was the same as above. After reaching the predetermined time, 120 μl of the supernatant of each well was taken for measuring LDH leakage using a commercially available kit (Beyotime Biotechnology, Shanghai, China) following the manufacturer’s instructions. Data were presented as the mean ± SEM, n ≥ 3.

hiPSC-CMs [4] = conditions: for Cell viability (in words): alkaloids 2, 10, 50 μM, aconitine 1 μM
Experimental: as §1
CMs were incubated in 10% CCK-8 (Dojindo, Kumamoto, Japan) that was diluted in normal culture medium at 37 °C until a visual color conversion occurred. The absorbance of each well was measured using a microplate reader (Spectrafluor, TECAN, Sunrise, Austria) at 450 nm. Three individual experiments were performed. All samples were operated in duplicate.
A 96-well plate was used to seed hiPSC-CMs at a concentration of 5 × 10^4 cells per well. The cultured cells were treated with different concentrations of compounds and were incubated for another 48 h. CMs were digested with trypsin, and a small amount of cell suspension was added into the same amount of trypan blue solution. Countstar Automated Cell Counter IC1000 (Elite Life Sciences, Shanghai, China) was used to count the number of total and living cells. Data were presented as the mean ± SEM, n ≥ 3.

GCaMP hESC-CMs = format: cell-based, human
Experimental: The hESC-CMs in this experiment can express the GCaMP reporter gene by gene editing, and green fluorescence marker can be observed by a fluorescence microscope. The fluorescence intensity is proportional to Ca^2+ concentration. The CMs were seeded into 96-well plates at 5000/well and were administered the same as above. The fluorescence intensities of hESC-CMs were monitored using an IncuCyte™ S3 ZOOM cell imaging system (Essen BioScience, Ann Arbor, MI). Data were presented as the mean ± SEM, n ≥ 3.

hiPSC-CMs [5] = format: cell-based, human
Experimental: Cells were incubated in a maintaining medium containing 10 μM DCFH-DA (Beyotime Biotechnology, Shanghai, China) for 30 min at 37 °C in the dark. The measurement of ROS was performed with IncuCyte™ S3 ZOOM cell imaging system (Essen BioScience, Ann Arbor, MI). TissueQuest 6.0 was used for the quantitative analysis of ROS formation. Data were presented as the mean ± SEM, n ≥ 3.

[6] = at the lowest effective concentration
[7] = hiPSC-CMs, 2, 10, 50 μM tested, 24 h

SMILES	GSH activity (in words) (hiPSC-CMs [1])	MDA level (in words) (hiPSC-CMs [1])	SOD activity (in words) (hiPSC-CMs [1])	Amplitude (EFP): lowest concentration that demonstrated a significant change compare with the control group (hiPSC-CMs [2]) [µM]	Amplitude (IMP): lowest concentration that demonstrated a significant change compare with the control group (hiPSC-CMs [2]) [µM]	Base impedance: lowest concentration that demonstrated a significant change compare with the control group (hiPSC-CMs [2]) [µM]	Beat rate: lowest concentration that demonstrated a significant change compare with the control group (hiPSC-CMs [2]) [µM]	FPD: lowest concentration that demonstrated a significant change compare with the control group (hiPSC-CMs [2])	Base impedance vs the control group (in words) (hiPSC-CMs [2])	Contractile amplitude (amplitude of IMP) vs the control group (in words) (hiPSC-CMs [2])	FPD value vs the control group (in words) (hiPSC-CMs [2])	Potential amplitude (amplitude of EFP) vs the control group (in words) (hiPSC-CMs [2])	Amplitude (EFP): initial time of significant change compare with the control group (hiPSC-CMs [2]; [6]) [h]	Amplitude (IMP): initial time of significant change compare with the control group (hiPSC-CMs [2]; [6]) [h]	Base impedance: initial time of significant change compare with the control group (hiPSC-CMs [2]; [6]) [h]	Cell viability (in words) (hiPSC-CMs [4]; hiPSC-CMs, 24 h)	Beat rate vs the control group (in words) (hiPSC-CMs [2])	LDH leakage: lowest concentration that demonstrated a significant change compare with the control group (hiPSC-CMs [3]; hiPSC-CMs, 2, 10, 50 μM tested) [µM]	[Ca^2+]i: lowest concentration that demonstrated a significant change compare with the control group (GCaMP hESC-CMs; hESC-CMs, 2, 10, 50 μM tested) [µM]	ROS level: lowest concentration that demonstrated a significant change compare with the control group (hiPSC-CMs [5]; hiPSC-CMs, 2, 10, 50 μM tested) [µM]	other results
O=c1cccc2n1C[C@@H]1CNC[C@H]2C1 [Cytisine, cytisine]	sharply lowered	rose	sharply lowered	50	10	50	10	No effect	no change except 50 μM cytisine treatment	upward trend	no significant effect	upward trend	16	4	12	decreased dose-dependently	–	–	–	–	Beat rate vs the control group (in words) (hiPSC-CMs [2]; listed as cytisine): slightly lowered; FPD value vs the control group (in words) (hiPSC-CMs [2]; listed as cytisine): remained stable in all groups; LDH leakage: lowest concentration that demonstrated a significant change compare with the control group (hiPSC-CMs [3]; human): 2 µM; Cell viability: lowest concentration that demonstrated a significant change compare with the control group (hiPSC-CMs [4]; human): 50 µM; [Ca^2+]i: lowest concentration that demonstrated a significant change compare with the control group (GCaMP hESC-CMs; human): 50 µM; ROS level: lowest concentration that demonstrated a significant change compare with the control group (hiPSC-CMs [5]; human): 50 µM
O=C1CCC[C@@H]2[C@H]3CCCN4CCC[C@@H](CN12)[C@@H]34 [Matrine, matrine]	sharply lowered	rose	sharply lowered	50	10	10	2	50 µM	slightly lowered	upward trend	rose in the first half of matrine treatment	upward trend	20	4	16	decreased dose-dependently	slightly lowered	2	50	50	Beat rate in comparison with the low-dose group (in words) (hiPSC-CMs [2]; higher concentrations 10, 50 μM): an increase in beat rate can be detected; Beat rate (in words) (hiPSC-CMs [2]; low, therapeutically relevant concentration 2 μM): a decrease in the beat rate can be detected; Fluorescence intensity of calcium, [Ca^2+]i (in words) (GCaMP hESC-CMs; GCaMP hESC-CMs, high dose of alkaloids (50 μM), aconitine 1 μM): increased significantly; ROS fluorescence / ROS production (in words) (hiPSC-CMs [5]; hiPSC-CMs, high dose of alkaloids (50 μM), aconitine 1 μM): induced ROS production in excess
O=C1CCC[C@@H]2[C@H]3CCC[N+]4([O-])CCC[C@@H](CN12)[C@@H]34 (stereo partly shown) [Oxymatrine, oxymatrine]	sharply lowered	rose	sharply lowered	10	–	–	10	No effect	no change, except 10 μM oxymatrine treatment	upward dose-dependent trend	remained stable in all groups	upward dose-dependent trend; also recorded: large fluctuation	12	4	–	decreased dose-dependently	slightly lower; also recorded: large fluctuation	2	–	–	Beat rate: initial time of significant change compare with the control group (hiPSC-CMs [2]; [6]): 4 h; Cell viability: lowest concentration that demonstrated a significant change compare with the control group (hiPSC-CMs [4]; [7]): 10 µM
O=C1C=CC[C@@H]2[C@H]3CCCN4CCC[C@@H](CN12)[C@@H]34 [Sophocarpine, sophocarpine]	sharply lowered	rose	sharply lowered	50	50	50	50	50 µM	no change	upward dose-dependent trend	large differences in the first 12 h and remained stable after 15 h of treatment	no change	16	–	8	decreased dose-dependently	–	2	50	10	FPD after high-dose administration (in words) (hiPSC-CMs [2]; 50 μM): immediately increased in a jump; Beat rate: initial time of significant change compare with the control group (hiPSC-CMs [2]; [6]): 4 h; FPD: period of time of significant change compare with the control group (hiPSC-CMs [2]; [6]): 0 to 12 h; Cell viability: lowest concentration that demonstrated a significant change compare with the control group (hiPSC-CMs [4]; [7]): 10 µM
